According to BigSolDB 2.1:

O=c1cnc(Br)c[nH]1
solubility (mole fraction)
Conditions	in DMF	in acetone	in acetonitrile	in ethanol	in ethylene glycol	in isopropanol	in methanol	in n-propanol	in propylene glycol	in water
278.15 K	0.00576	0.00534	0.00413	0.000696	0.00014	0.00258	0.000272	0.00382	0.000194	8.21e-06
283.15 K	0.00768	0.00685	0.00519	0.000989	0.000203	0.00333	0.000366	0.00472	0.00025	1.29e-05
288.15 K	0.00988	0.00877	0.00625	0.00128	0.000284	0.00439	0.000485	0.00579	0.000338	1.81e-05
293.15 K	0.0124	0.0106	0.00766	0.00166	0.000386	0.00534	0.000633	0.0072	0.000448	2.46e-05
298.15 K	0.0151	0.013	0.00941	0.0021	0.000504	0.00678	0.000782	0.00879	0.000589	3.2e-05
303.15 K	0.0181	0.0161	0.0113	0.00251	0.00065	0.00863	0.000951	0.0106	0.000766	4.13e-05
308.15 K	0.0219	0.0194	0.0136	0.00303	0.000845	0.0109	0.00116	0.0129	0.000961	5.32e-05
313.15 K	0.026	0.023	0.0161	0.0036	0.00111	0.0135	0.0014	0.0152	0.00121	6.69e-05
318.15 K	0.0309	0.0275	0.019	0.00434	0.00139	0.0168	0.00169	0.018	0.00152	8.43e-05
323.15 K	0.0365	0.0328	0.0222	0.00525	0.00174	0.0205	0.00203	0.0213	0.00187	0.000106
